Measurements reported in US20210071180A1, “MICRORNA 584-5P COMPOSITIONS AND METHODS FOR TREATING CANCER” (BOARD OF REGENTS, THE UNIVERSY OF TEXAS SYSTEM, priority 2018, published 2021).

Tests used:
Type in all cases: cell-based
[1] = system: PGC-1α; assay: qRT-PCR of PGC-1α expression; conditions: miR-584-5p-treated MB cells
Text: One such gene is peroxisome proliferator-activated receptor gamma coactivator 1-α, which codes for PGC-1α protein, which HDAC1 inhibits in brown adipocytes (Li, F. et al. J Biol Chem 291, 4523-4536, (2016)). The results disclosed herein reveal that PGC-1α expression is increased in miR-584-5p-treated MB cells (FIG. 10). […] The data in FIG. 10 represent Log 2 ratio tumor/cerebellum control. Data mined from GSE28245. ***, p<0.001; ** , p<0.01; * , p<0.05.
VCR disrupts the integrity of the mitotic spindle and destabilizes microtubules (George, P., Journey, L. J. & Goldstein, M. N. J Natl Cancer Inst 35, 355-375 (1965)). Therefore, it was tested whether miR-584-5p and its target genes might affect microtubule dynamics. First, expression of tubulins was deteremined because VCR resistance has been associated with altered expression of tubulin isotypes (Sirotnak, F. M., Danenberg, K. D., Chen, J., Fritz, F. & Danenberg, P. V. Biochem Biophys Res Commun 269, 21-24, (2000)). […] In FIG. 12A, the p-values were calculated using standard Student t-tests. Error bars represent mean±SEM. ****, p<0.0001. […] The p-values were calculated using standard Student t-tests. Error bars represent mean±SEM. […] In FIG. 11F, the p-values were calculated using standard Student t-tests. […] In FIG. 11H, The p-values were calculated using standard Student t-tests. […] Quantitative real-time PCR. […]

[2] = system: HDAC1; assay: qPCR and Western blot of HDAC1 in MB cells; conditions: transcript and protein levels, all cell lines tested
[3] = system: c-Myc; assay: qPCR and Western blot of c-Myc; conditions: c-Myc-amplified MB cells
Experimental: Immunofluorescence and Western blot analysis Immunofluorescence analyses was carried out on cells fixed in 4% paraformaldehyde (Imam, J. S. et al. PLoS One 7, e52397, (2012)). […]
Because c-Myc supports cancer stem cell growth, promotes radioresistance (Gravina, G. L. et al. Radiat Res 185, 411-422, (2016)), and has elevated levels in VCR-resistant cancer cells (He, Y., Zhang, J., Zhang, J. & Yuan, Y. Chin Med J (Engl) 113, 848-851 (2000)), it was tested whether miR-584-5p and its target genes may regulate c-Myc-amplified MB growth and therapy sensitization by targeting c-Myc levels/functions. […] In FIG. 14D, the p-values were calculated using standard Student t-tests. […] To test that possibility, it was assessed whether miR-584-5p target genes may regulate c-Myc levels in MB. […] Cell viability was assessed using alamarBlue. The p-value was calculated using one-way ANOVA followed by Sidak's multiple-comparisons test. […]

[4] = system: TUBB3, TUBB2a, and TUBB2b; assay: qPCR analysis of β-tubulin isotypes; conditions: miR-584-5p-overexpressing cells
Experimental: DNA is stained with DAPI (blue), whereas spindle is stained with β-tubulin (red) (below).
VCR disrupts the integrity of the mitotic spindle and destabilizes microtubules (George, P., Journey, L. J. & Goldstein, M. N. J Natl Cancer Inst 35, 355-375 (1965)). Therefore, it was tested whether miR-584-5p and its target genes might affect microtubule dynamics. First, expression of tubulins was deteremined because VCR resistance has been associated with altered expression of tubulin isotypes (Sirotnak, F. M., Danenberg, K. D., Chen, J., Fritz, F. & Danenberg, P. V. Biochem Biophys Res Commun 269, 21-24, (2000)). […] In FIG. 12A, the p-values were calculated using standard Student t-tests. Error bars represent mean±SEM. ****, p<0.0001. […] The p-values were calculated using standard Student t-tests. Error bars represent mean±SEM. To further test how miR-584-5p and its target genes affect spindle integrity, immunofluorescence analysis was performed on miR-584-5p-overexpressing or eIF4E3/HDAC1-silenced MB cells. […] In FIG. 11F, the p-values were calculated using standard Student t-tests. Error bars represent mean±SEM. […] In FIG. 11H, The p-values were calculated using standard Student t-tests. Error bars represent mean±SEM. ****, p<0.0001; ***, p<0.001; **, p<0.01; *, p<0.05. Quantitative real-time PCR. Total RNA was extracted using miRNAeasy kit (Qiagen). […]

## miR-584-5p: microRNA mimic; nucleotide sequence UUAUGGUUUGCCUGGGACUGAG (SEQ ID NO: 1); purchased from Thermofisher (chemistry not given here)
[1]
  PGC-1α expression: increased
[2]
  expression of HDAC1: significantly reduced expression
[3]
  c-Myc levels: significantly reduced expression of c-Myc
[4]
  transcript levels of TUBB3, TUBB2a, and TUBB2b: significantly reduced transcript levels
